Data on 1 molecule can be found in patent US9200269B2, “β-glucuronidase inhibitor” (priority 2007, dated 2015).

For the assay, the target named is T1, β-glucuronidase (Escherichia coli, UniProt P05804).
T1 construct: purchased Sigma-Aldrich Corporation
The assay can be described thus: Suppression of production of volatile compound from urine with added β-glucuronidase (GC-MS). The class given is biochemical. The conditions noted are these: 0.01 wt %; human urine plus enzyme, 25° C., 22 hours. The method, then:
9.9 mL of a human urine sample (a mixture of urine from five humans), from which microorganisms were filtered with a 0.2-μm filter (Millex GV manufactured by Millipore Corporation) were added to a bottle which had been preliminarily subjected to γ-ray sterilization immediately after the collection, and subsequently 0.1 mL of an Escherichia coli-derived β-glucuronidase Type VII-A (purchased from Sigma-Aldrich Corporation) aqueous solution adjusted to 250 units/mL was added and mixed. The mixture was incubated in a thermostat bath at 25° C. and allowed to react for 22 hours. An initial urine sample prepared by adding 0.1 mL of sterilized ion exchanged water as substitution of the enzyme solution, was similarly incubated in a thermostat bath for 22 hours.
9.9 mL of a human urine sample (a mixture of urine from five humans) which had been subjected to a microbe-removing operation with a 0.2-μm filter immediately after the collection and 10 μL of a 10 wt % 8-cyclohexadecen-1-one DPG solution were added to a bottle γ-ray sterilized in advance, and subsequently 0.1 mL of a […] aqueous solution adjusted to 250 units/mL was added and mixed. The mixture was incubated in a thermostat bath at 25° C. and allowed to react for 22 hours. The concentration of 8-cyclohexadecen-1-one in the reaction solution was 0.01 wt %. Further, a product prepared by adding 0.1 mL of an enzyme solution to 9.9 mL of the microbe-removed urine sample was used as a control, a product prepared by adding 0.1 mL of ion exchanged water to 9.9 mL of the microbe-removed urine sample was used as a blank, and the respective products were allowed to react for 22 hours in the same manner.
After the completion of the reaction, to 9 mL of the reaction solution, a benzyl benzoate ethanol solution was added as an internal standard. The mixture was extracted twice with 10 mL of diethyl ether. The extracted solutions were combined and dried over anhydrous magnesium sulfate. After drying, a solid was separated by filtration, and the filtrate was concentrated with a rotary evaporator to prepare a sample for measurement.
Measurement was performed with a gas chromatograph mass spectrometer. The production amount of the volatile compound detected was calculated as a peak area ratio with respect to an internal standard. The production suppression rate for each of volatile components was determined by using the obtained value in accordance with the following equation. Production amount of control=Peak area ratio of control—Peak area ratio of blank Production amount of sample=Peak area ratio of sample−Peak area ratio of blank Production suppression rate (%)=[(Production amount of control −Production amount of sample)/Production amount of control]×100

T1 sequence (P05804 whole entry): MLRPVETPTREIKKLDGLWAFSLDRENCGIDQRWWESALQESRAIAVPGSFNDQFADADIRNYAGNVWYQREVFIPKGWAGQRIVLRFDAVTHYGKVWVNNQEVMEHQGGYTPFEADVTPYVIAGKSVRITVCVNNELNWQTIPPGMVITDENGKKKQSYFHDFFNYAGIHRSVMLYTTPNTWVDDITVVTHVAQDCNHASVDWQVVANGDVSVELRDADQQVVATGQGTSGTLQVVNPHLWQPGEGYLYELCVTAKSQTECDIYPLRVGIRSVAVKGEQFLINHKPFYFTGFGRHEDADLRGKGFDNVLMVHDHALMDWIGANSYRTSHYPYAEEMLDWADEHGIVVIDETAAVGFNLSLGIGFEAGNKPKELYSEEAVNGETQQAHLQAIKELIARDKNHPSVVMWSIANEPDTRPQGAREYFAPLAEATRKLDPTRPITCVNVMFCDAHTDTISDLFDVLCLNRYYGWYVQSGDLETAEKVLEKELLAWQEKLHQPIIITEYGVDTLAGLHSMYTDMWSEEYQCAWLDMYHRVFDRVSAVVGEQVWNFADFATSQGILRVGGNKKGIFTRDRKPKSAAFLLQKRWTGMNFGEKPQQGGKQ

Regarding `O=C1CCCCCCC=CCCCCCCC1` [8-Cyclohexadecen-1-one, 8-cyclohexadecen-1-one], the “Production of phenol-based compounds and indole from urine (result in words)” value was “suppressed the production of all of phenol-based compounds and indole”; the “Production suppression rate (%) of 1,3-Benzenediol” value turned out to be 100%; the “Production suppression rate (%) of 1,4-Benzenediol” value is listed as 73%; the “Production suppression rate (%) of 2-Methoxy-1,3-benzenediol” value worked out at 73%. In addition, the “Production suppression rate (%) of 4-Vinyl-2-methoxyphenol” value is 55%, the “Production suppression rate (%) of 4-Vinylphenol” value came out at 57%, the “Production suppression rate (%) of Indole” value is 57% and the “Production suppression rate (%) of Phenol” value is listed as 70%. Moreover, the “Production suppression rate (%) of p-Cresol” value stood at 63%.
